{"source": "patent US8691290B2", "about": "(priority 2006, dated 2014)", "origin": "cited, not measured here", "system": "polymorphonuclear leukocytes (PMN) cells", "settings": "S. aureus with various concentrations of PVP-I, 6 hours", "data": [{"substance": "polyvinylpyrolodone-iodine [PVP-I]", "values": [{"measurement": "TNF-α release from PMN cells", "value": "released increasing amounts of TNF-α as PVP-I is diluted"}]}]}
